Experimental data from patent publication US20250169496A1, “USE OF 2-AMINO-3-HYDROXY-3-METHYLBUTYRIC ACID AND/OR 2-AMINO-3-(4-HYDROXYPHENYL) BUTYRIC ACID” (NANJING TIANNONG BIOTECHNOLOGY CO., LTD., priority 2021, published 2025).
Where “and” joins values, the source holds several entries; their conditions need not be identical. Equal values may be shown once.

How the values were obtained:
cotton under salt stress = experiment: Hydroponic cotton under salt stress (100 mM NaCl); format: in vivo, cotton (Si Kang 1#); settings: 100 mM NaCl for three days
Method: The experimental material is “Si Kang 1#” cotton. Use 500 mL plastic cups for hydroponic culture and replace the ½Hoagland nutrient solution once every two days. Spray a 2-amino-3-hydroxy-3-methylbutyric acid solution on the leaf surface when the cotton seedlings grow until the second true leaf is fully open, set the concentrations at 0, 1, 10, 100 and 1,000 nM in the experiment, and add 0.02% Tween 20 as a surfactant. Spray once every 24 h, twice in total, add NaCl to the ½Hoagland nutrient solution on the second day after treatment to make its final concentration be 100 mM, and conduct salt stress treatment. Repeat each treatment three times. Rewater after three days of salt stress, observe the salt damage symptoms of cotton, and calculate the salt damage index by the following formula: […]

wheat powdery mildew [1] = experiment: Field test of induced resistance of wheat to powdery mildew; format: in vivo; settings: 1,000 nM; for Thousand kernel weight: dried harvested wheat seeds; for Relative immune effect: vs additive control
Method: Spraya 2-amino-3-hydroxy-3-methylbutyric acid solution (surfactant Tween 20 (0.02% (v/v) is added) at a concentration of 1,000 nM on stems and leaves in the field of Jiangsu Academy of Agricultural Sciences, use surfactant Tween 20 with a spray volume percent of 0.02% as an additive control, Atailing with 30 g sprayed per mu as a positive control, and repeat each treatment for three times. Investigate the wheat morbidity level of each treatment, record the morbidity level according to the wheat powdery mildew grading standard in the Pesticide—Guidelines for the Field Efficacy Trials(I) and calculate the disease index and relative immune effect by the calculation method same as that for the disease index and relative immune effect of tomato spotted wilt. After drying of the harvested wheat seeds, determine the thousand kernel weight of the wheat seeds under different treatments. The wheat powdery mildew grading standard (with leaf as a unit): • Level 1: The area of the disease spots accounts for less than 5% of the whole leaf area; • Level 3: The area of the disease spots accounts for 6%-15% of the whole leaf area; • Level 5: The area of the disease spots accounts for 16%-25% of the whole leaf area; • Level 7: The area of the disease spots accounts for 26%-50% of the whole leaf area; • Level 9: The area of the disease spots accounts for more than 50% of the whole leaf area.

[2] = system: tea under low-temperature stress; experiment: Tea seedlings under low-temperature stress; format: in vivo, tea (Baiye 1#); settings: for PIABS (photosynthetic performance index): tea seedlings after 24 h at −4° C.; for Cold damage index: tea seedlings, 24 h at −4° C., recovered 3 d; for Decrease of cold damage index / Increase of PIABS: 10,000 nM (so in the source), tea, low-temperature stress, vs 0 nM
Method: The tea trees for test are cutting seedling Baiye 1#. Select tea seedlings with consistent growth, move them into plastic bowls with a diameter of 18 cm, put them in a greenhouse of 25° C. and RH 60%-70%, adapt to growth for about one week, and carry out the test. […] The spray treatment method is the same as the Arabidopsis treatment method in Embodiment 6, the time of low-temperature stress is 24 h, and the temperature is set at −4° C. Take out tea seedlings after stress, conduct dark treatment at room temperature for 30 min, then determine the chlorophyll fluorescence of leaves at the top of tea seedlings by plant efficiency Handy-PEA, then put them in a 25° C. greenhouse and recover them for 3 d, observe and calculate the cold damage condition and grade it. The statistics and grading standard of the cold damage index is shown in Table 12, the calculation formula is as follows and the results are as shown in Table 13. [formula] [table]

wheat powdery mildew [3] = experiment: Induced resistance of wheat seedlings to powdery mildew (greenhouse pots); format: in vivo, wheat (NAU0686); settings: for Relative immune effect: wheat powdery mildew; for Number of mycelia and conidium yield on wheat leaves: 10-10,000 nM, with the increase of concentration
Method: Take 2-amino-3-hydroxy-3-methylbutyric acid, dissolve it in distilled water, then dilute the solution with distilled water by gradient into 10 nM, 100 nM, 1,000 nM and 10,000 nM solutions, and set a blank control. Accelerate germination of wheat (NAU0686) seeds, then sow them in sterilized soil bowls, and culture them in a greenhouse of 23 (±1)° C. and 12 h illumination. Spray the 2-amino-3-hydroxy-3-methylbutyric acid solutions at the above concentrations to the stems and leaves of wheat seedlings when the seedlings have grown to have one leaf and one shoot, at an interval of 24 h and twice in total, evenly sprinkle fresh powdery wheat spores on the wheat leaves after 24 h, 3 pots each treatment, 20 plants per pot. Investigate the morbidity level of the wheat in each treatment after 10 d, record the morbidity level according to the wheat powdery mildew grading standard in the Pesticide—Guidelines for the Field Efficacy Trials(I) and calculate the disease index and relative immune effect by the calculation method same as that for the disease index and relative immune effect of tomato spotted wilt. Wheatpowdery mildew grading standard (with leaf as a unit): • Level 1: The area of the disease spots accounts for less than 5% of the whole leaf area; • Level 3: The area of the disease spots accounts for6%-15% of the whole leaf area; • Level 5: The area of the disease spots accounts for 16%-25% of the whole leaf area; • Level 7: The area of the disease spots accounts for26%-50% of the whole leaf area; • Level 9: The area of the disease spots accounts for more than 50% of the whole leaf area.

| Structure (SMILES) | Death rate (cotton under salt stress; 1 nM) [%] | Salt damage index (cotton under salt stress; 1 nM) [%] | Death rate (cotton under salt stress; 10 nM) [%] | Salt damage index (cotton under salt stress; 10 nM) [%] | Death rate (cotton under salt stress; 100 nM) [%] | Salt damage index (cotton under salt stress; 100 nM) [%] | Death rate (cotton under salt stress; 1,000 nM) [%] | Salt damage index (cotton under salt stress; 1,000 nM) [%] | Thousand kernel weight (wheat powdery mildew [1]) | Relative immune effect (wheat powdery mildew [1]) [%] | PIABS (photosynthetic performance index) ([2]; 10 nM) | Cold damage index ([2]; 10 nM) [%] | PIABS (photosynthetic performance index) ([2]; 100 nM) | Cold damage index ([2]; 100 nM) [%] | PIABS (photosynthetic performance index) ([2]; 1,000 nM) | Cold damage index ([2]; 1,000 nM) [%] | Decrease of cold damage index [2] [%] | Increase of PIABS [2] [%] | Relative immune effect (wheat powdery mildew [3]; 10 nM) [%] | Relative immune effect (wheat powdery mildew [3]; 100 nM) [%] | other results |
| --- | --- | --- | --- | --- | --- | --- | --- | --- | --- | --- | --- | --- | --- | --- | --- | --- | --- | --- | --- | --- | --- |
| CC(c1ccc(O)cc1)C(N)C(=O)O (centres unmarked) [2-amino-3-(4-hydroxyphenyl) butyric acid] | 48 | 64 | 45 | 56 | 30 | 52 | 29 | 43 | 37.92 g and 37.92 ± 0.21 a g | 47.28 | 31.94 ± 1.37bc | 55 | 34.67 ± 3.27ab | 35 | 38.56 ± 2.23a | 30 | 40 | 90.8 | 20.17 | 34.92 | PIABS (photosynthetic performance index) ([2]; 1 nM): 28.10 ± 3.10cd; Cold damage index ([2]; 1 nM): 60%; Relative immune effect (wheat powdery mildew [3]; 10,000 nM): 71.12%; Number of mycelia and conidium yield on wheat leaves (wheat powdery mildew [3]): decreased significantly |
| CC(C)(O)C(N)C(=O)O (centres unmarked) [2-amino-3-hydroxy-3-methylbutyric acid] | 51 | 66 | 47 | 58 | 34 | 54 | 30 | 48 | 32.61 g and 32.61 ± 0.18 a g | 38.74 | 28.35 ± 1.66c | 65 | 30.67 ± 2.07bc | 45 | 35.23 ± 1.96b | 30 | 60 | 73 | 16.85 | 27.90 | PIABS (photosynthetic performance index) ([2]; 10,000 nM): 40.16 ± 2.15a; Cold damage index ([2]; 10,000 nM): 15%; Relative immune effect (wheat powdery mildew [3]; 1,000 nM): 47.24%; Relative immune effect (wheat powdery mildew [3]; 10,000 nM): 65.68%; Number of mycelia and conidium yield on wheat leaves (wheat powdery mildew [3]): decreased significantly; Disease index (wheat powdery mildew [3]; concentration greater than or equal to 1,000 nM, susceptible wheat, powdery mildew): lower than 50 |
